Results as given in patent US10370354B2, “Metalloenzyme inhibitor compounds” (NQP 1598, LTD., priority 2011, dated 2019).
Values after ≈ are worked out from the molar mass of the structure shown.

What was measured:
[1] = system: C. albicans; test: Minimum Inhibitory Concentration (MIC), C. albicans, CLSI M27-A2; type: cell-based; conditions: Candida albicans MIC50; about 50% growth reduction; approximately 48 h at 35±1° C.
Description: Compounds were assessed for their ability to inhibit the growth of common strains of fungus, C. albicans using a standardized procedure (CLSI M27-A2).
Stock solutions of the test compounds and standards were prepared in DMSO at 1600 μg/mL (C. albicans). Eleven, serial, one-half dilutions of compounds were prepared in 96-well plates in RPMI+MOPS. The assay concentration ranges were 1-0.001 μg/mL (C. albicans). Cell suspensions of C. albicans were prepared and added to each well at concentrations of approximately 3.7×10^3 colony-forming-units per milliliter (cfu/mL). All testing was in duplicate. The inoculated plates were incubated for approximately 48 h at 35±1° C. At the completion of incubation the wells of each plate were evaluated visually for the presence of fungal growth.
For voriconazole the M1C was the concentration which reduced C. albicans growth by 50% (per CLST, M27-A2). For QC purposes C. krusei isolate ATCC 6258 (4.0×10^3 cfu/mL) was included in the VOR assay.

[2] = system: A. fumigatus; test: A. fumigatus MIC, CLSI M38-A2; conditions: Aspergillus fumigatus, read-out: Aspergillus MIC
Description: A. fumigatus MICs were determined at both 50% and 100% growth inhibition following CLSI guidelines at a concentration range of 64-0.062 μg/mL (CLSI M38-A2).

[3] = system: Septoria tritici; test: standard Septoria tritici MIC assay (ATCC 26517, CLSI protocol); type: cell-based; conditions: Zymoseptoria tritici, ATCC26517, range stated for the three compounds together
[4] = system: A. fumigatus; test: standard 4-day mouse model of A. fumigatus, kidney fungal burden; type: in vivo; conditions: oral administration at 20 mg/kg each of 4 days
Description: For example, oral administration of Compound (−)-9 at 20 mg/kg each of 4 days reduced mouse kidney fungal burden 84% compared to control.

[5] = system: Septoria; test: protection from fungal growth in planta, Septoria; type: in vivo; conditions: applied at 50 ppm; Septoria pathogen
[6] = system: Puccinia; test: protection from fungal growth in planta, Puccinia; type: in vivo; conditions: applied at 50 ppm; Puccinia pathogen

Structure (SMILES)	MIC [1]	MIC [2]	MIC [3]	also measured
OC(Cn1cnnn1)(c1ccc(F)cc1F)C(F)(F)c1ccc(C#Cc2ccc(OCc3ccc(Cl)cc3F)cc2)cn1 (racemic) [Example 108, 1-(5-((4-(4-chloro-2-fluorobenzyloxy)phenyl)ethynyl)pyridin-2-yl)-2-(2,4-difluorophenyl)-1,1-difluoro-3-(1H-tetrazol-1-yl)propan-2-ol]	0.062 µg/mL (≈ 0.101 µM)	4 µg/mL (≈ 6.54 µM)		
OC(Cn1cnnn1)(c1ccc(F)cc1F)C(F)(F)c1ccc(C#Cc2ccc(F)cc2)cn1 (racemic) [Example 3, 2-(2,4-Difluorophenyl)-1,1-difluoro-1-(5-((4-fluorophenyl)ethynyl)pyridin-2-yl)-3-(1H-tetrazol-1-yl)propan-2-ol]			0.25 to 1 µg/mL (≈ 0.53 to 2.12 µM)	
OC(Cn1cnnn1)(c1ccc(F)cc1F)C(F)(F)c1ccc(C#Cc2ccc(OCc3ccc(OC(F)(F)F)cc3)cc2)cn1 (racemic) [Example 101, 2-(2,4-difluorophenyl)-1,1-difluoro-3-(1H-tetrazol-1-yl)-1-(5-((4-(4-(trifluoromethoxy)benzyloxy)phenyl)ethynyl)pyridin-2-yl)propan-2-ol]	0.25 µg/mL (≈ 0.388 µM)	2 µg/mL (≈ 3.11 µM)		
OC(c1ccc(C#Cc2ccc(C(F)(F)C(O)(Cn3cnnn3)c3ccc(F)cc3F)nc2)cc1)C(F)(F)F (stereo not drawn) [Compound (−)-9, 2-(2,4-difluorophenyl)-1,1-difluoro-3-(1H-tetrazol-1-yl)-1-(5-((4-(2,2,2-trifluoro-1-hydroxyethyl)phenyl)ethynyl)pyridin-2-yl)propan-2-ol]				reduced mouse kidney fungal burden compared to control [4]: 84%
OC(Cn1cnnn1)(c1ccc(F)cc1F)C(F)(F)c1ccc(C#Cc2cccc(Cl)c2)cn1 (racemic) [Example 21, 1-(5-((3-chlorophenyl)ethynyl)pyridin-2-yl)-2-(2,4-difluorophenyl)-1,1-difluoro-3-(1H-tetrazol-1-yl)propan-2-ol]			0.25 to 1 µg/mL (≈ 0.512 to 2.05 µM)	
OC(Cn1cnnn1)(c1ccc(F)cc1F)C(F)(F)c1ccc(C#Cc2ccc(Cl)cc2)cn1 (racemic) [Example 2, 1-(5-((4-Chlorophenyl)ethynyl)pyridin-2-yl)-2-(2,4-difluorophenyl)-1,1-difluoro-3-(1H-tetrazol-1-yl)propan-2-ol]	0.004 µg/mL (≈ 0.0082 µM)	8 µg/mL (≈ 16.4 µM)	0.25 to 1 µg/mL (≈ 0.512 to 2.05 µM)	protection from fungal growth in planta [5]: provide protection from fungal growth; protection from fungal growth in planta [6]: provide protection from fungal growth
OC(c1ccc(C#Cc2ccc(C(F)(F)C(O)(Cn3cnnn3)c3ccc(F)cc3F)nc2)cc1)C(F)(F)F (racemic) [Example 9, 2-(2,4-difluorophenyl)-1,1-difluoro-3-(1H-tetrazol-1-yl)-1-(5-((4-(2,2,2-trifluoro-1-hydroxyethyl)phenyl)ethynyl)pyridin-2-yl)propan-2-ol]	≤ 0.001 µg/mL	0.5 µg/mL (≈ 0.907 µM)		
OC(Cn1cnnn1)(c1ccc(F)cc1F)C(F)(F)c1ccc(C#Cc2ccc(C(F)(F)F)cc2)cn1 (racemic) [Example 5, 2-(2,4-Difluorophenyl)-1,1-difluoro-3-(1H-tetrazol-1-yl)-1-(5-((4-(trifluoromethyl)phenyl)ethynyl)pyridin-2-yl)propan-2-ol]	0.016 µg/mL (≈ 0.0307 µM)	8 µg/mL (≈ 15.3 µM)		
C[C@@H](c1ncncc1F)[C@](O)(Cn1cncn1)c1ccc(F)cc1F [Voriconazole, reference compound]	0.016 µg/mL (≈ 0.0458 µM)	0.25 µg/mL (≈ 0.716 µM)		
